According to publication PMC3914206:

Tests used:
Assay type in all cases: binding
panel of 442 kinases [1] = target: panel of 442 kinases (Homo sapiens, UniProt P19784); details: Compound Concentration 10 µM
Source text: (§1) We assessed the selectivity of members of this scaffold using the KINOMEscan methodology across a near comprehensive panel of 442 kinases [[18,27]].

panel of 442 kinases [2] = target: T1, panel of 442 kinases (Homo sapiens, UniProt P45983); details: Compound Concentration 10 µM
T1 construct: purchased KINOMEscan
Source text: as §1

panel of 442 kinases [3] = target: T2, panel of 442 kinases (Homo sapiens, UniProt P29317); details: Compound Concentration 10 µM
T2 construct: purchased KINOMEscan
Source text: as §1

panel of 442 kinases [4] = target: T3, panel of 442 kinases (Homo sapiens, UniProt Q8TDR2); details: kinase STK35; compound concentration 10 µM
T3 construct: purchased KINOMEscan
Source text: as §1

Chain of panel of 442 kinases (Homo sapiens, UniProt P19784) (P19784 whole entry): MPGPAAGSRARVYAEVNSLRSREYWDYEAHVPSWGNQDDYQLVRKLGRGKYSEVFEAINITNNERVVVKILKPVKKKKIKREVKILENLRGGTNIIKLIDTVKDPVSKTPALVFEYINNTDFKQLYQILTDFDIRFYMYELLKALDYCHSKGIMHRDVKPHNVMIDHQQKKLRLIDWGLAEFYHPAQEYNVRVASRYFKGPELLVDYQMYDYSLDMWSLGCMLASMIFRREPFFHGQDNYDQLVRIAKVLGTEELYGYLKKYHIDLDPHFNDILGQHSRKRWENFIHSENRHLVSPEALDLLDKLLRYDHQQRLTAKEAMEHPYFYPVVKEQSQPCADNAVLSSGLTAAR
T2 sequence (P29317 24-976): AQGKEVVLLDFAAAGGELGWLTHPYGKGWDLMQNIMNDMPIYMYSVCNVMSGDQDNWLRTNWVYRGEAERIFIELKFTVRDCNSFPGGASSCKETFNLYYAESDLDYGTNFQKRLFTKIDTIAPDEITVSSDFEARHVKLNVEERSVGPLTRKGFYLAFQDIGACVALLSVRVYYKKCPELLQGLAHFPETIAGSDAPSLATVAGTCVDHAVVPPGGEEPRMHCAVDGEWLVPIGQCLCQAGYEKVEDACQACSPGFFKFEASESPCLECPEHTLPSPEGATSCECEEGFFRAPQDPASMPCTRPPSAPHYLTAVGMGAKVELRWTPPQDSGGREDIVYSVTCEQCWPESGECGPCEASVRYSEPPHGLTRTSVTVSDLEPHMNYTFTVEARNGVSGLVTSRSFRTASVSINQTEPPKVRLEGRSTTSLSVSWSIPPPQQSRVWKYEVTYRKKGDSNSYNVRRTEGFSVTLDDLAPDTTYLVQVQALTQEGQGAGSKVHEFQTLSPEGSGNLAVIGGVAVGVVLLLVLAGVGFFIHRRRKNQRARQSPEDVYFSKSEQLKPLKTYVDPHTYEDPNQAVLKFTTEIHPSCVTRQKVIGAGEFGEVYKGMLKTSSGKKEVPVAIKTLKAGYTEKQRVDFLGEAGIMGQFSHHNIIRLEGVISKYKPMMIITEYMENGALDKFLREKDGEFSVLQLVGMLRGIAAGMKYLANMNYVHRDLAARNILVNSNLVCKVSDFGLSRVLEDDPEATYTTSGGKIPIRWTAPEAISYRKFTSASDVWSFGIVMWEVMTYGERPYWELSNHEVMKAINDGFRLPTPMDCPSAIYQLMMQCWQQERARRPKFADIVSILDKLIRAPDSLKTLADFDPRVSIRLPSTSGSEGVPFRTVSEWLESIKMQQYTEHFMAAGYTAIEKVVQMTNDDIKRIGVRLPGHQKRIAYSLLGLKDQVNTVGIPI
T1 sequence (P45983 whole entry): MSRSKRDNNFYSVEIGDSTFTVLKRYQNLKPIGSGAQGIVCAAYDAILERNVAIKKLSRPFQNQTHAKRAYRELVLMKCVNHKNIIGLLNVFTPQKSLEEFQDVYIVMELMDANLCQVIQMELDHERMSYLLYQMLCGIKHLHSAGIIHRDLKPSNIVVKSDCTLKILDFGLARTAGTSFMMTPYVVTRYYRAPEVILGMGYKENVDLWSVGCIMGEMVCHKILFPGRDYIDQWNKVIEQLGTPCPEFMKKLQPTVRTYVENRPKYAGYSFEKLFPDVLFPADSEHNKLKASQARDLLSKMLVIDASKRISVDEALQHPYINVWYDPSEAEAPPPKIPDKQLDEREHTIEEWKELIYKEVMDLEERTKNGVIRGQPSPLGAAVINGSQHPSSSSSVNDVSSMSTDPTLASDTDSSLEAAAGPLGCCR
T3 sequence (Q8TDR2 whole entry): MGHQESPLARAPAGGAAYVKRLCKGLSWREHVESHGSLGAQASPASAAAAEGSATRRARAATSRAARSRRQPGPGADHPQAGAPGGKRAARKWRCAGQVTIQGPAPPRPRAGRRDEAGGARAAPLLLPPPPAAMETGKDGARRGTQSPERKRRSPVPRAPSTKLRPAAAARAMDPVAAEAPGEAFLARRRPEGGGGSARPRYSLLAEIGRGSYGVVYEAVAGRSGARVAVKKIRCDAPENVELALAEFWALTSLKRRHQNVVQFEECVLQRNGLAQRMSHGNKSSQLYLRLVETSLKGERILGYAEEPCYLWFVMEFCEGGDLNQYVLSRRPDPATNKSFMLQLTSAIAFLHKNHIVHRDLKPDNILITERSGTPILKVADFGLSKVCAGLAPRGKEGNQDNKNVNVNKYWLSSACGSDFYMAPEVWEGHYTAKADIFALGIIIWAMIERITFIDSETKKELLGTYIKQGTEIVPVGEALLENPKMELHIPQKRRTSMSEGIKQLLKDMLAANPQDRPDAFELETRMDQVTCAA

| SMILES | KINOMEscan: CSNK2A2 (panel of 442 kinases [1]) | KINOMEscan: JNK1 (panel of 442 kinases [2]) | KINOMEscan: EPHA2 (panel of 442 kinases [3]) | % Ctrl, STK35 (panel of 442 kinases [4]) |
| --- | --- | --- | --- | --- |
| COc1cc(C(=O)N2CCC(N3CCN(C)CC3)CC2)ccc1Nc1ncc2c(n1)N(C)c1ccccc1C(=O)N2C [15 (LRRK2-IN-1)] | 93 | 95 | 92 | 100 % Ctrl |
| COc1cc(C(=O)N2CCC(N3CCN(C)CC3)CC2)ccc1Nc1ncc2c(n1)N1CCc3cccc(c31)C(=O)N2C [Compound 24] |  | 63 | 95 | 100 % Ctrl |
| COc1cc(C(=O)N2CCC(N3CCN(C)CC3)CC2)ccc1Nc1ncc2c(n1)N(C1CCCC1)c1ccccc1C(=O)N2C [Compound 25, 11-cyclopentyl-2-((2-methoxy-4-(4-(4-methylpiperazin-1-yl)piperidine-1-carbonyl)phenyl)amino)-5-methyl-5H-benzo[e]pyrimido[5,4-b][1,4]diazepin-6(11H)-one] | 100 | 38 | 100 | 100 % Ctrl |
| CCOc1cc(C(=O)N2CCC(N3CCN(C)CC3)CC2)ccc1Nc1ncc2c(n1)N(C1CCCC1)c1ccccc1C(=O)N2C [Compound 26] | 97 | 76 | 100 | 96 % Ctrl |
